From US10947218B2, “Aminopyridine derivatives and their use as selective ALK-2 inhibitors” (priority 2016, dated 2021) come the findings set out here.

The nature of data set [1]: Solubility in aqueous media (25° C., 24 h equilibration). In kind it is physicochemical. The following applies: pH 9.0 borate buffer/8.6, target concentration 2 mg/mL.
The nature of data set [2]: Dynamic Vapor Sorption (physical stability versus relative humidity). In kind it is physicochemical. The procedure:
The peaks found are: Wave number (in cm^−1): 3241(m), 2951(w), 2867(w), 1669(m), 1538(m), 1456(w), 1355(m), 1249(m), 1087(w), 979(w), 885(w), 797(w). […] Then 3 mL of heptane were added into the solution. White solid precipitated out. The solid was separated by suction filtration and dried at 40° C. under vacuum overnight. 380 mg of a fumarate salt amorphous form of 2-amino-N-(4-hydroxybicyclo[2.2.2]octan-1-yl)-5-(4-((1R,5S)-3-(tetrahydro-2H-pyran-4-yl)-3-azabicyclo[3.1.0]hexan-1-yl)phenyl)nicotinamide was obtained as a white solid. […] Resulting mixture was stirred at 50° C. for 0.5 hour and a clear solution was obtained. To the solution was slowly added a solution of 695.2 mg in 10 mL of acetone:water (95:5, v/v). Resulting suspension was gradually cooled to 25° C. and was kept stirring for 24 hours. Add 1.5 mL water to the suspension. The mixture was kept stirring at 50° C. for 12 hours and slowly cooled to 25° C. Solid was separated by suction filtration, washed with 10 mL acetone:water (90:10, v/v) once, and exposed to an ambient environment (about 25° C., 50% RH) overnight. […]

Counter-ions that a name gives are not always drawn.

On to `Nc1ncc(-c2ccc([C@@]34C[C@@H]3CN(C3CCOCC3)C4)cc2)cc1C(=O)NC12CCC(O)(CC1)CC2` [Free form Modification HA, 2-amino-N-(4-hydroxybicyclo[2.2.2]octan-1-yl)-5-(4-((1R,5S)-3-(tetrahydro-2H-pyran-4-yl)-3-azabicyclo[3.1.0]hexan-1-yl)phenyl)nicotinamide], for which, in data set [1], the solubility entry is “<LOQ”.
Consider `Nc1ncc(-c2ccc([C@@]34C[C@@H]3CN(C3CCOCC3)C4)cc2)cc1C(=O)NC12CCC(O)(CC1)CC2` [Fumarate salt Modification HA, 2-amino-N-(4-hydroxybicyclo[2.2.2]octan-1-yl)-5-(4-((1R,5S)-3-(tetrahydro-2H-pyran-4-yl)-3-azabicyclo[3.1.0]hexan-1-yl)phenyl)nicotinamide], for which the “physical stability over relative humidity (DVS)” value is reported as “physically stable at least from 0% to 90% RH” in data set [2] (25° C., FIG. 15) and “physically stable at least from 10% to 90% RH” in data set [2] (40° C., FIG. 16).
